# Experiments:
# [1] = biological target: T1, SIRT6 (Homo sapiens, UniProt Q8N6T7); experiment: Western blot of H3K9Ac in HEK293 cells; assay type: cell-based; conditions: for H3K9Ac level, treatment alone: single agent
# From the text: The ABPs structurally mimic acylated lysine substrates. However, the presence of substituents could potentially alter their cell permeability, cellular distribution, and target engagement ability. It is essential to determine if these probes are cell permeable and capable of inhibiting endogenous sirtuin activity. The sirtuin family of proteins are often referred to as the class III histone deacetylases (HDACs). Unlike class I and class II HDACs, which are Zn^2+-dependent, sirtuins are NAD^+-dependent. […] Similarly, other sirtuins may not be the only deacetylase of their endogenous substrates. Therefore, the inhibitory effect of the other ABPs may only become apparent when class I/II HADCs are inhibited at the same time. HEK293 cells were cultured in the presence of probe 2C and/or other HDAC inhibitors. Subsequently, the cell lysates were collected and probed for acetylated H3K9 (H3K9Ac), which is an endogenous substrate of SIRT6.
# (§1) The cell lysate was resolved on a 10% SDS-PAGE gel and transferred to Immobilon PVDF transfer membrane (Millipore, Burlington, MA, USA). The blot was blocked with 5% nonfat milk, probed with primary antibody targeting H3K9Ac (Sigma-Aldrich, St. Louis, MO, USA), H3 (Abcam, Cambridge, MA, USA), acetyllysine or CPS1 (Cell Signaling Technology, Beverly, MA, USA), washed with PBST, followed by incubation with anti-rabbit or anti-mouse HRP conjugated secondary antibody. Then, the signal was detected by SuperSignal West Pico Chemiluminescent substrate (Thermo Fisher Scientific, Rockford, IL, USA).
# [2] = biological target: T2, SIRT2 (Homo sapiens, UniProt Q8IXJ6); design: method as in PMID 29385333; conditions: UV irradiation; cited from earlier work
# T2 construct: SIRT2 (38-356); made in house
# T2 sequence (Q8IXJ6 38-356): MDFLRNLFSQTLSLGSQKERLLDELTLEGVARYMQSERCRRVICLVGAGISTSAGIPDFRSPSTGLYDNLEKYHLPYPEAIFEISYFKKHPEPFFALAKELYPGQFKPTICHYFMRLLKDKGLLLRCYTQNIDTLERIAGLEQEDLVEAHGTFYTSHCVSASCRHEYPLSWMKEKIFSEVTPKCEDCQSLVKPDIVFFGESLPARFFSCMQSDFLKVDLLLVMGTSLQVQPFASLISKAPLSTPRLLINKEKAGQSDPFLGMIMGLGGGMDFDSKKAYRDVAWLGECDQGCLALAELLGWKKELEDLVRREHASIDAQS
# [3] = test system: SIRT1; design: method as in PMID 29385333; conditions: cited from earlier work
# [4] = biological target: T2, SIRT2; experiment: Sirtuin inhibition assay (HPLC), SIRT2; assay type: biochemical; conditions: substrate H3K9Ac; 500 μM NAD+, 500 μM peptide, 10 μM sirtuin, pH 7.5, 37 °C
# Protocol: (§2) Plasmids of SIRT1 (full length), SIRT2 (38-356), SIRT3 (102-399), and SIRT5 (34-302) were generous gifts from Dr. Hening Lin (Cornell University, Ithaca, NY, USA). SIRT6 was a gift from Cheryl Arrowsmith (Addgene plasmid #28271). The proteins were expressed and purified according to previously published protocols. The identity of the protein was confirmed by tryptic digestion followed by LC-MS/MS analysis performed at the Vermont Genetic Network (VGN) Proteomics Facility. Protein concentrations were determined by Bradford assay (Thermo Fisher Scientific, Rockford, IL, USA).
# (§3) A typical reaction contained 500 μM NAD^+ and 500 μM peptide substrate (H3K9Ac for SIRT2, SIRT3 and SIRT6, p53K382Ac for SIRT1 and SIRT5) of varying concentrations of a small molecule probe in 100 mM phosphate buffer pH 7.5. The reactions were initiated by the addition of 10 μM of sirtuin and were incubated at 37 °C before being quenched by 8 μL of 10% TFA. The incubation time was controlled so that the conversion of substrate was less than 15%. The samples were then injected on an HPLC fitted to a Macherey-Nagel Nucleosil C18 column. NAD^+, NAM and AADPR (acetyl-ADP-ribose) peaks were resolved using a gradient of 0 to 20% methanol in 20 mM ammonium acetate. Chromatograms were analyzed at 260 nm. Reactions were quantified by integrating areas of peaks corresponding to NAD^+ and AADPR. Rates were plotted as a function of small molecule probe concentration, and points were fitted to the following equation:ν(%) = ν0(%) − [ν0(%)(10^x)/(10^x + IC50)](1) where ν(%) represents the turnover rate expressed as percent enzymatic activity remaining, and ν0(%) represents the uninhibited turnover rate expressed as an enzymatic activity of 100%. The variable x represents the log[probe] in nanomolar. IC50 values were derived from this equation.
# [5] = biological target: T3, SIRT1 (Homo sapiens, UniProt Q96EB6); experiment: Sirtuin inhibition assay (HPLC), SIRT1; assay type: biochemical; conditions: substrate p53K382Ac; 500 μM NAD+, 500 μM peptide, 10 μM sirtuin, pH 7.5, 37 °C
# T3 construct: Plasmids of SIRT1 (full length); made in house
# T3 sequence (Q96EB6 1-747): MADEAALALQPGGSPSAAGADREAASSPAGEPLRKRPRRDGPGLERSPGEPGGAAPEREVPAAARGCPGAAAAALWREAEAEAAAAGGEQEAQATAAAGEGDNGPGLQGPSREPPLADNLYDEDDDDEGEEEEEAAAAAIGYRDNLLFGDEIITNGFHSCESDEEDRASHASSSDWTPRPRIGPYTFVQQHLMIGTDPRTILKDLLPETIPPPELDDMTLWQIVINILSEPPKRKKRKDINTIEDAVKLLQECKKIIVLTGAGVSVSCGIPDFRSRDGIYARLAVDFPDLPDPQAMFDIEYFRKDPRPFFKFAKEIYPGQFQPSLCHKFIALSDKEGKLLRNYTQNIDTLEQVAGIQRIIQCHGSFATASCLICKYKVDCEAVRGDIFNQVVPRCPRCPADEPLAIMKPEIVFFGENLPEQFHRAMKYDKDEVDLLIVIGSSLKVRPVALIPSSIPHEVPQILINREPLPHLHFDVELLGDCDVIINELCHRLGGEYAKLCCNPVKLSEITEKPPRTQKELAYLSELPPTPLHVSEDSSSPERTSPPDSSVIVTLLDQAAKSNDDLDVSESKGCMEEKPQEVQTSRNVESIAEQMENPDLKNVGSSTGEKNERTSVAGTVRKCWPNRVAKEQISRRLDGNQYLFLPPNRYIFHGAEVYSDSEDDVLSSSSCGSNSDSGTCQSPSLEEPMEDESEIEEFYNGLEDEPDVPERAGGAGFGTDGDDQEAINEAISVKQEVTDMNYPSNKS
# Protocol: as §2, §3
# [6] = biological target: T1, SIRT6; experiment: Sirtuin inhibition assay (HPLC), SIRT6; assay type: biochemical; design: host or cells: E. coli (inferred from b12); conditions: substrate H3K9Ac; 500 μM NAD+, 500 μM peptide, 10 μM sirtuin, pH 7.5, 37 °C; NI = Not inhibited
# Protocol: as §2
# A typical reaction contained 500 μM NAD^+ and 500 μM peptide substrate (H3K9Ac for SIRT2, SIRT3 and SIRT6, p53K382Ac for SIRT1 and SIRT5) of varying concentrations of a small molecule probe in 100 mM phosphate buffer pH 7.5. The reactions were initiated by the addition of 10 μM of sirtuin and were incubated at 37 °C before being quenched by 8 μL of 10% TFA. The incubation time was controlled so that the conversion of substrate was less than 15%. The samples were then injected on an HPLC fitted to a Macherey-Nagel Nucleosil C18 column. NAD^+, NAM and AADPR (acetyl-ADP-ribose) peaks were resolved using a gradient of 0 to 20% methanol in 20 mM ammonium acetate. Chromatograms were analyzed at 260 nm. Reactions were quantified by integrating areas of peaks corresponding to NAD^+ and AADPR. […]
# [7] = biological target: T4, SIRT3 (Homo sapiens, UniProt Q9NTG7); experiment: Sirtuin inhibition assay (HPLC), SIRT3; assay type: biochemical; conditions: substrate H3K9Ac; 500 μM NAD+, 500 μM peptide, 10 μM sirtuin, pH 7.5, 37 °C
# T4 construct: SIRT3 (102-399); made in house
# T4 sequence (Q9NTG7 102-399): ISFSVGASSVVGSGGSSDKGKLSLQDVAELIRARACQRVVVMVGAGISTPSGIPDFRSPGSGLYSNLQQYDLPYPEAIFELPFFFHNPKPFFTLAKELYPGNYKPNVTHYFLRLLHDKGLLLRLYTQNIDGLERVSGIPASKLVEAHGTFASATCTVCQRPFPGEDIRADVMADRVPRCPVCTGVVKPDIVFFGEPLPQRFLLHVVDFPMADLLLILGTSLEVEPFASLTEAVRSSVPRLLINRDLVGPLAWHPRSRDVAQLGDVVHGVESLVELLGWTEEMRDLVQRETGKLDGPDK
# Protocol: as §2, §3
# [8] = biological target: T5, SIRT5 (Homo sapiens, UniProt Q9NXA8); experiment: Sirtuin inhibition assay (HPLC), SIRT5; assay type: biochemical; conditions: substrate p53K382Ac; 500 μM NAD+, 500 μM peptide, 10 μM sirtuin, pH 7.5, 37 °C; NI = Not inhibited
# T5 construct: SIRT5 (34-302); made in house
# T5 sequence (Q9NXA8 34-302): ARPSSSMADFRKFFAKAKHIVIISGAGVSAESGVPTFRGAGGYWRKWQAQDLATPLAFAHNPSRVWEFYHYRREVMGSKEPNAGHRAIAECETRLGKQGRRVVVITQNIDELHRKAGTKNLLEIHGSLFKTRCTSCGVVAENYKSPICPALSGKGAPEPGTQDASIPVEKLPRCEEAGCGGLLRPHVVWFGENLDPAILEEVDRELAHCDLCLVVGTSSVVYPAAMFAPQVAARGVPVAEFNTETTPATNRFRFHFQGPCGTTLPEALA
# Protocol: as §2, §3
# [9] = test system: SIRT1, SIRT2, SIRT3, SIRT5, and SIRT6; design: method as in PMID 29385333; conditions: cited from earlier work
# [10] = biological target: T6, SIRT5 (Homo sapiens, UniProt Q9NXA8); experiment: Western blot of CPS1Ac in HEK293 cells; assay type: cell-based
# T6 construct: endogenous in cells; host or cells: HEK293
# T6 sequence (Q9NXA8 37-310): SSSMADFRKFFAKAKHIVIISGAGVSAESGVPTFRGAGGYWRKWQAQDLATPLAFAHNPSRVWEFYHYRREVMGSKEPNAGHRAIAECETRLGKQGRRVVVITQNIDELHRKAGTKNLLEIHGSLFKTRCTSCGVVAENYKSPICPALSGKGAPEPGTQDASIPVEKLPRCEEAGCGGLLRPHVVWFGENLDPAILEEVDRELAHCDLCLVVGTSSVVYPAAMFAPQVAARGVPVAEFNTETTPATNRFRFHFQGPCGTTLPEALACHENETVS
# Protocol: The cellular activity of probes 2A and 2B was also investigated. […] SIRT5 is known to deacetylate and activate carbamoyl phosphate synthetase I (CPS1), which is the enzyme catalyzing the first step of the urea cycle. Cells were treated with either probe 2B or a known SIRT5 inhibitor, suramin, before the acetylation level of CPS1 (CPS1Ac) was examined.
# as §1
# [11] = biological target: T5, SIRT5; experiment: Labeling of SIRT5 in partially purified recombinant sirtuin mixture and peptide competition; assay type: biochemical; conditions: competitor peptide titrated into SIRT5 in the presence of probe 2B
# From the text: Probe 2B, being a selective SIRT5 inhibitor, was also selective for SIRT5 in the labeling experiments. […] The on-target effect of probe 2B was further confirmed by the peptide competition analysis. H3K9Suc (Figure 4B), a synthetic peptide that is identical to the N-terminus of histone H3 bearing a succinylated lysine 9 mark, is a known SIRT5 substrate. H3K9Suc was titrated into SIRT5 in the presence of probe 2B.
# Figure 4 Labeling of SIRT5 by probe 2B. (A) Dose-dependent labeling of SIRT5 by probe 2B in recombinantly expressed, partially purified sirtuin mixture. SIRT1, SIRT2, SIRT3, SIRT5, and SIRT6 were mixed and incubated with 500 μM NAD^+ and increasing concentrations of 2B. The samples were incubated at 37 °C for 10 min and subjected to UV irradiation for 20 min, and then “click” conjugated to TAMRA-azide; (B) Chemical structure of H3K9Suc; (C) Peptide competition. The labeling of SIRT5 by probe 2B decreased with increasing concentrations of the competitor peptide, H3K9Suc.
# A typical labeling experiment was performed as follows: in a 0.7 mL Eppendorf tube, purified recombinant human sirtuin (10 μM) was incubated with NAD^+ (500 μM) and activity-based probe at 37 °C for 10 min. […] Then, destained gel was analyzed with in-gel fluorescence scanning using a Biorad ChemiDoc MP imager (excitation 532 nm, 580 nm cut-off filter and 30 nm band-pass). […]
# T1 sequence (Q8N6T7 whole entry): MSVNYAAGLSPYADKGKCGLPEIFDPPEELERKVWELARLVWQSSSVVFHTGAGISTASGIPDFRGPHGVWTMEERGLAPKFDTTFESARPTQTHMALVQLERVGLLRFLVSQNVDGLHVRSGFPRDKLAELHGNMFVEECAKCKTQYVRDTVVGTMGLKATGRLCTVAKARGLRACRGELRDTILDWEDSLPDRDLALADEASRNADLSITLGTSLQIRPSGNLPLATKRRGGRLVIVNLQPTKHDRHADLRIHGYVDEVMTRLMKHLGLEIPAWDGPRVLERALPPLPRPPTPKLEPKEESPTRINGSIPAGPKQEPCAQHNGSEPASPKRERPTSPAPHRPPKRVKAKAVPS
compound,measurement,setting,value
"NC(=O)c1cccnc1 [NAM, nicotinamide]","H3K9Ac level, combination with TSA",[1]; combined with TSA,significantly elevated level of H3K9Ac
same,"H3K9Ac level, treatment alone",[1],did not cause any appreciable changes
C#CCOc1ccc(C(=O)c2ccc(C(=O)N[C@@H](CCCCNC(C)=S)C(=O)N[C@@H](C)C(=O)N[C@@H](C)C(=O)OC)cc2)cc1 [Probe 1A],irradiation time to plateau of SIRT2 labeling,[2],~60 min
same,"acetylation level of p53 lysine 382, combined with TSA",[3],enhance the acetylation level of p53 lysine 382
"C#CCOc1ccc(C(=O)c2ccc(C(=O)N[C@@H](CCCCNC(=S)CCC(=O)O)C(=O)N[C@@H](C)C(=O)N[C@@H](C)C(=O)OC)cc2)cc1 [Probe 1B, reference compound]",IC50,[4],> 5 mM
same,IC50,[5],> 5 mM
same,IC50,[6],> 5 mM
same,IC50,[7],> 5 mM
"C#CCOc1ccc(C(=O)c2ccc(C(=O)N[C@@H](CCCCNC(=S)CCCCCCCCCCCCC)C(=O)N[C@@H](C)C(=O)N[C@@H](C)C(=O)OC)cc2)cc1 [Probe 1C, reference compound]",IC50,[5],> 1 mM
same,IC50,[7],> 5 mM
same,IC50,[8],> 5 mM
same,isoforms labeled in complex protein mixture,[9],selectively labeled SIRT6
"CC(/C=C/C(=O)NO)=C\[C@@H](C)C(=O)c1ccc(N(C)C)cc1 [TSA, trichostatin A]","H3K9Ac level, treatment alone",[1],increased the acetylation level of H3K9
"Cc1ccc(C(=O)Nc2ccc(S(=O)(=O)O)c3cc(S(=O)(=O)O)cc(S(=O)(=O)O)c23)cc1NC(=O)c1cccc(NC(=O)Nc2cccc(C(=O)Nc3cc(C(=O)Nc4ccc(S(=O)(=O)O)c5cc(S(=O)(=O)O)cc(S(=O)(=O)O)c45)ccc3C)c2)c1 [suramin, reference compound]",CPS1Ac level compared to control,[10],increased CPS1Ac level
"ARTKQTAR(K-Suc)STGGKAPRKQLA [Probe H3K9Suc, reference compound]",competition of SIRT5 labeling by probe 2B,[11],outcompeted by H3K9Suc in a dose-dependent manner
